# Data as given in US20090263341A1, “SOFT ANTICHOLINERGIC ESTERS” (priority 2005, published 2009).
# Where a name gives a salt, the structure may show the parent alone. Read-outs that look alike come from different tables or passages of the source.
# Assays:
# [1] = target: T1, cloned human muscarinic receptor subtype M2 (Homo sapiens, UniProt P08172); assay: Receptor binding, [3H]NMS, cloned human muscarinic receptor M2
# T1 sequence (P08172 1-466): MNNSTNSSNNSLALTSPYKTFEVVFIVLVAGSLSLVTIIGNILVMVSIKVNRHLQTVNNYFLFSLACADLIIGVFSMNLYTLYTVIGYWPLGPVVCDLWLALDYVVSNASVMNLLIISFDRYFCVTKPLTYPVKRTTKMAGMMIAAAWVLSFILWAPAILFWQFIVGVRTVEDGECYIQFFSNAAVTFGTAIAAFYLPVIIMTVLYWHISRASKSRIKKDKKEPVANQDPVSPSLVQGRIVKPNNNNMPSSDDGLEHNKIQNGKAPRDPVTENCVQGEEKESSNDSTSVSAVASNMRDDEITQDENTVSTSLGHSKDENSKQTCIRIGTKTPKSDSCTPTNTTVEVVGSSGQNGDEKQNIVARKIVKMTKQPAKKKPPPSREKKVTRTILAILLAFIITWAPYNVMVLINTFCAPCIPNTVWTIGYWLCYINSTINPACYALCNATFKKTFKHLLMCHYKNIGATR
# [2] = target: cloned human muscarinic receptor subtypes M1-M4; assay: Receptor binding at cloned human muscarinic receptors, values stated across subtypes (ranges, M3/M2 selectivity)
# [3] = target: T2, cloned human muscarinic receptor subtype M1 (Homo sapiens, UniProt P11229); assay: Receptor binding, [3H]NMS, cloned human muscarinic receptor M1
# T2 sequence (P11229 1-460): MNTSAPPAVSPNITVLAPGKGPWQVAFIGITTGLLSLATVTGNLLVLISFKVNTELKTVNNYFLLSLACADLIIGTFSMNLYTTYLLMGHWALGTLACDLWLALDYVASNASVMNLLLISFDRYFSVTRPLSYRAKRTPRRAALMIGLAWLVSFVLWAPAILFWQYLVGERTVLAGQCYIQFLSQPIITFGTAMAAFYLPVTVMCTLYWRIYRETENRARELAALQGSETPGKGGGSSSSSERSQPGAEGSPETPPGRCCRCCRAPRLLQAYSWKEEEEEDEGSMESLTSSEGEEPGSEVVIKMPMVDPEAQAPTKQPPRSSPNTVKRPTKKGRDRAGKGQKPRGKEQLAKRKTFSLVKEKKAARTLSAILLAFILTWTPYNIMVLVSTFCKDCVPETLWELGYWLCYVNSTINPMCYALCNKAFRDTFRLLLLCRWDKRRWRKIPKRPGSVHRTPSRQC
# [4] = target: T3, cloned human muscarinic receptor subtype M4 (Homo sapiens, UniProt P08173); assay: Receptor binding, [3H]NMS, cloned human muscarinic receptor M4
# T3 construct: purchased Applied Cell Science Inc. (Rockville, Md.)
# T3 sequence (P08173 1-479): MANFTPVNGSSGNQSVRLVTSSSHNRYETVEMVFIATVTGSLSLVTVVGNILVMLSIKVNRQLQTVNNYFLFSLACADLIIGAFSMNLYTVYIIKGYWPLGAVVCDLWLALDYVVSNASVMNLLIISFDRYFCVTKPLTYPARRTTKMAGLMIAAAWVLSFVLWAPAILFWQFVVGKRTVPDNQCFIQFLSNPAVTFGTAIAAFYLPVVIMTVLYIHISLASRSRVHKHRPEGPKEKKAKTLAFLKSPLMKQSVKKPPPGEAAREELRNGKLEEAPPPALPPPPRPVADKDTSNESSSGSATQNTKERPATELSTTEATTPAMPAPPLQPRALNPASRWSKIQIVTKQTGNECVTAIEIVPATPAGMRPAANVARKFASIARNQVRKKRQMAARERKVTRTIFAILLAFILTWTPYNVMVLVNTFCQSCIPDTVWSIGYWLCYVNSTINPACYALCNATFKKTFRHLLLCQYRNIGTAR
# [5] = target: T4, cloned human muscarinic receptor subtype M3 (Homo sapiens, UniProt P20309); assay: Receptor binding, [3H]NMS, cloned human muscarinic receptor M3
# T4 construct: purchased Applied Cell Science Inc. (Rockville, Md.)
# [6] = test system: acetylcholine-induced bronchoconstriction; details: guinea pig, in vivo
# [7] = test system: guinea pig ileum longitudinal muscle strips; assay: Guinea pig ileum longitudinal muscle assay, pA2 against acetylcholine (Schild plot)
# [8] = test system: guinea pig ileum (M3 muscarinic receptors)
# [9] = test system: guinea pig tracheal rings; assay: Guinea pig trachea assay, pA2 against carbachol (Schild plot)
# Procedure: Changes in isometric tension were measured by a force displacement transducer (Experimetria, Budapest, Hungary) coupled to a Watanabe recorder. Cumulative concentration-effect curves were constructed to carbachol in the absence or presence of the antagonists. In each animal two preparations were used as time control (i.e., repeated carbachol curves in the absence of any antagonist) the remaining two preparations were used to test responses in the presence of two different concentrations of the antagonist.
# Antagonists were added to the organ bath 30 min prior to commencement of the agonist concentration versus effect curves. Schild plots were constructed for the antagonists against carbachol and pA2 values as well as slope estimates were obtained.
# Responses were measured as changes in isometric tension and calculated as a percentage of the maximum response attained in the initial concentration-response curve. Determination of antagonist potencies was done by constructing Schild double logarithmic plot of log (DR-1) versus −log M concentrations of the antagonist, and the slope of the plot was computed. […] Statistical significance was assessed by ANOVA followed by Dunnett test.
# [10] = test system: electrically stimulated guinea pig tracheal strips; assay: Time course of anticholinergic effect in electrically stimulated guinea pig trachea
# [11] = target: muscarinic receptors (mainly M1) of rat brain cortex membranes (Rattus norvegicus, UniProt P08482); assay type: binding
# [12] = time from washout to 20% recovery of cholinergic responses
smiles,measurement,setting,value
C[N+]1(CC(=O)OCC(Cl)(Cl)Cl)[C@@H]2C[C@@H](OC(=O)C(O)(c3cccs3)c3cccs3)C[C@H]1[C@@H]1O[C@@H]12 (some centres unmarked) (as salt: bromide),melting point,,105 °C
"CCOC(=O)C[N+]1(C)[C@@H]2C[C@@H](OC(=O)C(O)(c3cccs3)c3cccs3)C[C@H]1[C@@H]1O[C@@H]12 (stereo partly drawn) (as salt: bromide) [Compound (w), 6β,7β-epoxy-3,8-hydroxy-8-ethoxycarbonylmethyl-8-methyl-1αH,5αH-tropaniun bromide, di-2-thienylglycolate]",melting point,,115 °C
"C[N+]1(CC(=O)O)[C@@H]2C[C@@H](OC(=O)C(O)(c3cccs3)c3cccs3)C[C@H]1[C@@H]1O[C@@H]12 (stereo partly drawn) (as salt: salt) [Compound (aa), 6β,7β-epoxy-3β-hydroxy-8-carboxymethyl-8-methyl-1αH,5αH-tropanuim, di-2-thienylglycolate inner salt]",melting point,,158 to 165 °C (dec.)
"CCOC(=O)C[N+]1(C)CC[C@H](OC(=O)[C@](O)(c2ccccc2)C2CCCC2)C1 (mixture of isomers) [Compound (j), (2R,3′S) 3-(2-cyclopentyl-2-phenyl-2-hydroxyacetoxy)-1-(ethoxycarbonylmethyl)-1-methylpyrrolidinium bromide]",Ki,"[1]; mean ± SD of 3 experiments, read-out: receptor binding affinity pKi, M2 (converted)",6.17 nM
same,"Hill slope, M2",[1]; numbers in parentheses,(1.27 ± 0.11)
same,"pKi, range over subtypes M1-M4",[2],8.2-8.7
same,Selectivity M3/M2 (affinity ratio),[2]; M3/M2 affinity ratio,2.8±0.8 times
same,Ki,"[3]; mean ± SD of 3 experiments, read-out: receptor binding affinity pKi, M1 (converted)",2.09 nM
same,"Hill slope, M1",[3]; numbers in parentheses,(1.21 ± 0.33)
same,Ki,"[4]; mean ± SD of 3 experiments, read-out: receptor binding affinity pKi, M4 (converted)",1.95 nM
same,"Hill slope, M4",[4]; numbers in parentheses,(1.15 ± 0.03)
same,Ki,"[5]; mean ± SD of 3 experiments, read-out: receptor binding affinity pKi, M3 (converted)",2.29 nM
same,"Hill slope, M3",[5]; numbers in parentheses,(1.33 ± 0.16)
"C[N+]1(C)CCC(OC(=O)C(O)(c2ccccc2)C2CCCC2)C1.[Br-] (mixture of isomers) [glycopyrrolate, 3-(2-cyclopentyl-2-phenyl-2-hydroxyacetoxy)-1,1-dimethylpyrrolidinium bromide, reference compound]","Hill slope, M2",[1],(0.99 ± 0.11)
same,effect on acetylcholine-induced bronchoconstriction,[6],protective effect
same,"pA2, Ileum",[7],9.66
same,pA2,[8],8.57±0.12
same,"pA2, Trachea",[9],9.43
same,"Hill slope, M1",[3],(1.37 ± 0.20)
same,"Hill slope, M4",[4],(1.02 ± 0.01)
same,"Hill slope, M3",[5],(1.14 ± 0.25)
"CN1[C@@H]2CC[C@H]1C[C@@H](OC(=O)C(CO)c1ccccc1)C2 (some centres unmarked) [Atropine, atropine]","pA2, Ileum",[7],8.52
same,t1/5 offset,[10],10 min
same,t1/5 onset,[10],2.5 min
"C[N+]1(CC(=O)O)[C@@H]2C[C@@H](OC(=O)C(O)(c3cccs3)c3cccs3)C[C@H]1[C@@H]1O[C@@H]12 (stereo partly drawn) [Compound (aa), 6β,7β-epoxy-3β-hydroxy-8-carboxymethyl-8-methyl-1αH,5αH-tropanuim, di-2-thienylglycolate inner salt]",t1/5 onset,[10]; onset of inhibition,0.9 min
same,t1/5 offset,[10]; [12],27 min
"CCOC(=O)C[N@+]1(C)CC[C@@H](OC(=O)[C@](O)(c2ccccc2)C2CCCC2)C1 [Compound (m), (2R,1′R,3′R) 3-(2-cyclopentyl-2-phenyl-2-hydroxyacetoxy)-1-(ethoxycarbonylmethyl)-1-methylpyrrolidinium bromide]",effect on acetylcholine-induced bronchoconstriction,[6],protective effect
same,"pA2, Ileum",[7]; tissue samples from four animals,8.48
same,Hill slope,[11]; Table 8,−0.93 ± 0.08
same,"pA2, Trachea","[9]; against carbachol, tissue from four animals",8.12
"CCOC(=O)C[N@@+]1(C)CC[C@@H](OC(=O)[C@](O)(c2ccccc2)C2CCCC2)C1 [Compound (n), (2R,1′S,3′R) 3-(2-cyclopentyl-2-phenyl-2-hydroxyacetoxy)-1-(ethoxycarbonylmethyl)-1-methylpyrrolidinium bromide]",Hill slope,[11]; Table 8,−1.07 ± 0.02
"CCOC(=O)C[N+]1(C)[C@@H]2C[C@@H](OC(=O)C(O)(c3cccs3)c3cccs3)C[C@H]1[C@@H]1O[C@@H]12 (stereo partly drawn) [Compound (w), 6β,7β-epoxy-3,8-hydroxy-8-ethoxycarbonylmethyl-8-methyl-1αH,5αH-tropaniun bromide, di-2-thienylglycolate]",Hill slope,[11],−1.00 ± 0.04
same,Ki,[11],7.2 ± 0.5 nM
same,"pA2, Trachea",[9],8.82
same,t1/5 onset,[10]; onset of inhibition,0.6 min
same,t1/5 offset,[10]; [12],60 min
"CC(C)[N+]1(C)[C@@H]2CC[C@H]1CC(OC(=O)C(CO)c1ccccc1)C2.[Br-] (some centres unmarked) [Ipratropium Br, ipratropium bromide, reference compound]","pA2, Trachea",[9],9.18
same,t1/5 onset,[10],3.0 min
"C[N+]1(C)[C@@H]2C[C@@H](OC(=O)C(O)(c3cccs3)c3cccs3)C[C@H]1[C@@H]1O[C@@H]12 [Tiotropium, tiotropium]",t1/5 offset,[10],>360 min
same,t1/5 onset,[10],8.0 min
"C[N+]1(C)[C@@H]2C[C@@H](OC(=O)[C@H](CO)c3ccccc3)C[C@H]1[C@@H]1O[C@@H]12 [scopolamine methyl bromide, scopolamine methylbromide, reference compound]","Hill slope, M2",[1],(1.02 ± 0.02)
